Reference: patent publication US20120288883A1, “PROBE REAGENT FOR MEASUREMENT OF PROTEOLYTIC ACTIVITY” (RIKEN, priority 2010, published 2012)

Tested on: ubiquitin-proteasome system
Test: Screening for degradation-terminating peptide: FRET fluorescence imaging of probe reagents expressed in HeLa cells
Format: cell-based
Details: CyPet/YPet probe with Geminin (1/110) degron
Excerpt: In order to develop a probe reagent of interest, p105 was screened for a peptide sequence capable of terminating degradation. CyPet as a fluorescent protein I, YPet as a fluorescent protein II, and Geminin as a degron protein were used to prepare an experimental probe reagent (FIG. 2). The fluorescent protein CyPet is derived from CFP and has an excitation wavelength peak of 435 nm and a fluorescence wavelength peak of 477 nm. The fluorescent protein YPet is derived from YFP and has an excitation wavelength peak of 517 nm and a fluorescence wavelength peak of 530 nm. This pair is known to efficiently cause FRET with CyPet as a donor and YPet as an acceptor. The protein Geminin is a factor controlling the progression of cell cycle and has the function of inhibiting the licensing of DNA replication (Cell 1998; 93 (11): 1043-1053; and Am. J. Pathol. 2002; 161 (1): 267-273). Its abundance is strictly controlled during cell cycle so that its expression level increases in the S/G2/M phases and this protein disappears due to the promoted degradation by the ubiquitin-proteasome system in the G1 phase. A region of N-terminal amino acids 1-110 (Geminin (1/110)) containing a moiety necessary for the degradation of the Geminin molecule was selected from the structure of Geminin (e.g., NM_015895 (human, SEQ ID NOs: 18 and 19), NM_020567 (mouse)) and used in this experiment.
The respective cDNAs of these molecules were amplified by PCR and ligated by insertion to each restriction enzyme site in the multicloning site of a cloning vector pBluescript II SK(+) (Stratagene) to prepare gene DNA of the probe reagent. A region of amino acids 366-440 in human-derived p105 (SEQ ID NOs: 16 and 17) was screened for a peptide sequence for terminating degradation. This region contains GRR and processing point.
The prepared gene DNA of the probe reagent was then excised from the pBlueScript vector with restriction enzymes, and this fragment was inserted into the multicloning site of an expression vector CSII-EF-MCS to prepare a vector for expression in cultured cells.
HeLa cells were cultured in a Dulbecco's modified Eagle's medium containing 10% fetal bovine serum in a 35 mmφ glass-bottomed dish. The prepared vector plasmid was mixed with a transfection reagent FuGENE (Roche Applied Science) and added to the medium. The HeLa cells were cultured in a CO2 incubator for 2 days so that the cells expressed the probe reagent and experienced cell cycle.
This is because the intramolecular nuclear localization signal of the Geminin protein, which functions in the nucleus, allowed the probe reagent to be selectively incorporated into the nucleus. The amount of Geminin changes periodically depending on the promoted or suppressed degradation by the ubiquitin-proteasome system in accordance with cell cycle. If the degradation of the probe reagent accompanying the degradation of Geminin is terminated by the degradation-terminating peptide, CyPet accumulates in the cell during every cell cycle without being degraded and thus reduces an YPet/CyPet fluorescence intensity ratio serving as an index value for FRET at the time of CyPet excitation. After the degradation of Geminin, the probe reagent lacks the nuclear localization signal. As a result, the remaining CyPet molecule also becomes distributed in the cytoplasm. The cells were fluorescently imaged from these viewpoints and screened for a peptide capable of terminating degradation.
An inverted microscope (IX70, Olympus Corp.) was used in cell observation. Fluorescence images were obtained using a 3-CCD cooled color camera (ORCA-3CCD, Hamamatsu Photonics K.K.). This camera can simultaneously capture images in three wavelength (red, green, and blue) regions and merge them to form observable color images. Also, it can individually measure the brightness of the image in each wavelength region. After excitation with a 440 nm band-pass filter, the fluorescence images of the cells were obtained through a 460 nm long-pass filter. […]

| Substance | ability of the peptide to terminate degradation of the probe reagent |
| --- | --- |
| GRR: glycine-rich region, amino acids 376-404 of human p105, tested alone as degradation-terminating peptide | failed to terminate the degradation |
| p105 (376/409): probe reagent containing human p105 amino acids 376-409 (SEQ ID NO: 11) (GGGSGAGAGGGGMFGSGGGGGGTGSTGPGYSFPH; listed as Homo sapiens) | capable of efficiently terminating protein degradation |
| p105 (376/420): probe reagent containing human p105 amino acids 376-420 (SEQ ID NO: 9) (GGGSGAGAGGGGMFGSGGGGGGTGSTGPGYSFPHYGFPTYGGITF; listed as Homo sapiens) | capable of efficiently terminating protein degradation |
| p105 (376/434): probe reagent containing human p105 amino acids 376-434 (SEQ ID NO: 7) (GGGSGAGAGGGGMFGSGGGGGGTGSTGPGYSFPHYGFPTYGGITFHPGTTKSNAGMKHG; listed as Homo sapiens) | capable of efficiently terminating protein degradation |
| p105 (382/440): probe reagent containing human p105 amino acids 382-440 (SEQ ID NO: 3) (GAGGGGMFGSGGGGGGTGSTGPGYSFPHYGFPTYGGITFHPGTTKSNAGMKHGTMDTES; listed as Homo sapiens) | capable of efficiently terminating protein degradation |
| p105 (392/440): probe reagent containing human p105 amino acids 392-440 (SEQ ID NO: 5) (GGGGGGTGSTGPGYSFPHYGFPTYGGITFHPGTTKSNAGMKHGTMDTES; listed as Homo sapiens) | capable of efficiently terminating protein degradation |
